Entries after “also recorded” stand apart in the source; their conditions may differ. Read-outs that look alike come from different tables or passages of the source.
How the values were obtained:
L1210 leukemia = experiment: Prolongation effects of life span against L1210-bearing mice; format: in vivo, BDF1 mice; details: for 30 days survivor / ILS(%) / Survival days MST / B.W. Change: i.p., days 1, 3, 5; for B.W. Change: day 1 to day 5
Description: Antitumor activities were measured through the experiments on prolongation effects of life span against L1210-bearing mice and tumor growth inhibitory effects against B16-bearing mice. To evaluate the antitumor activities on L1210 leukemia, a certain number of L1210 cells (in vitro) was intraperitoneally inoculated for propagation and the L1210 cells in ascites were harvested from animals sacrificed by cervical dislocation on 7th day after tumor was implanted.
(§1) Male BDF1 mice, weighing about 20 grams, were used. Animal rooms were controlled at 23±2° C. and 60±5% relative humidity, under HEPA filter, and maintained in specific pathogen free (SPF).
5×10^5 of L1210 leukemia cell, obtained in vitro form, were intraperitoneally inoculated in BDF1 mice for propagation. The L1210 tumor cells in ascites were aseptically harvested from BDF1 mice sacrificed by cervical dislocation on 7th day after tumor implantation.
The tumor cells were passaged at least three times prior to use in the test.
5×10^5 cell were intraperitoneally inoculated into BDF1 mice on day 0 and the sample ([…]) were intraperitoneally administration on days 1, 3 and 5. six mice were used for each experimental group.
Antitumor activities were evaluated by the mean survival time of a group of mice and also expressed by the ILS(%) value and the mean animal weights for day 1 and day 5.
Increased Life span (ILS)
ILS(%)={(MST of sample treated group/MST of solvent group)-1}×100

B16 melanoma = format: in vivo, BDF1 mice; details: for IR (%) on tumor size / IR (%) on tumor weight / Tumor weight day 20 / Tumor size day 8 / Tumor size day 12 / Tumor size day 16 / Tumor size day 20: days 8, 12, 16; for IR (%) on tumor size / IR (%) on tumor weight: day 20; for Tumor weight day 20: in g (unit assumed); for Tumor size day 8 / Tumor size day 12 / Tumor size day 16 / Tumor size day 20: in mm³ (unit assumed)
Description: To investigate tumor growth inhibitory effects against B16 melanoma, a certain number of B16 cells(in vitro) was subcutaneously inoculated for propagation and tumor cells were resected from animals scrificed by cervical dislocation on 14th day after tumor was implanted.
as §1
10^6 of B16 melanoma cell, obtained in vitro form, were subcutaneously in BDF1 mice for propagation. The B16 melanomas were transfered on day 14. The fresh tumors except for necrotized center were aseptically resected from tumor-bearing mice sacrificed by cervical dislocation.
The tumor cells were passaged at least […] three times prior to use in the test.
1 g subcutaneously donor tumor to be subcutaneously was homogenized in cold sterilized saline to give a final concentration of 1 g/10 ml. The 1:10 tumor suspension is injected into all BDF1 mice subcutaneously using 0.2 ml/mouse.
The mice were subcutaneously implanted with such homogenized solution and 7 to 8th day after the tumor implantation, the mice having a certain size of tumors were selected for experiments. Each experimental group were administered with the sample (0.1 ml/10 g) on 8th, 12th and 16th day after the inoculation of tumor. Eight mice were used for each experimental group.
The size of the tumors was calculated by direct measurement of the diameter of the tumors, using the formula.
Where b is the largest diameter and a is the diameter perpendicular to b and growth curves were thus obtained. (FIG. 2)
The inhibition rate of tumor growth on the basis of tumor size was calculated according to the formula.
TWt is the mean tumor volume(weight) of sample-treated groups.
TWc is the mean tumor volume(weight) of control group.

[1] = background art; cited from earlier work
topoisomerase I = details: background art; cited from earlier work

In the case of `CCC1(O)C(=O)OCc2c1cc1n(c2=O)Cc2c-1nc1ccccc1c2CCN(Cc1ccccc1)C(=O)OCc1ccccc1` (racemic) [Example 18, dl-7-[2-(N-benzyl-N-carbobenzyloxyamino)ethyl]camptothecin], the 30 days survivor (L1210 leukemia; total dose 10 mg/kg) is reported as 0/6, the “ILS(%)” value (L1210 leukemia; total dose 10 mg/kg) is reported as 33% and the “Survival days MST” value (L1210 leukemia; total dose 10 mg/kg) is reported as 13.00 days. For the same molecule, the “B.W. Change” value (L1210 leukemia; total dose 10 mg/kg) was -0.25 g, the 30 days survivor (L1210 leukemia; total dose 50 mg/kg) was 0/6 and the “ILS(%)” value (L1210 leukemia; total dose 50 mg/kg) was 64%. The “Survival days MST” value (L1210 leukemia; total dose 50 mg/kg) was 16.00 days and the “B.W. Change” value (L1210 leukemia; total dose 50 mg/kg) was -0.80 g.

In the case of `CCC1(O)C(=O)OCc2c1cc1n(c2=O)Cc2c-1nc1ccccc1c2CCNCc1ccccc1` (racemic) [Example 26, dl-7-[2-(N-benzylamino)ethyl]camptothecin], the 30 days survivor (L1210 leukemia; total dose 10 mg/kg) is reported as 0/6, the “ILS(%)” value (L1210 leukemia; total dose 10 mg/kg) is reported as 72% and the “Survival days MST” value (L1210 leukemia; total dose 10 mg/kg) is reported as 15.67 days. The “B.W. Change” value (L1210 leukemia; total dose 10 mg/kg) was -0.09 g, the 30 days survivor (L1210 leukemia; total dose 50 mg/kg) was 0/6 and the “ILS(%)” value (L1210 leukemia; total dose 50 mg/kg) was 75%. For the same molecule, the “Survival days MST” value (L1210 leukemia; total dose 50 mg/kg) was 16.00 days and the “B.W. Change” value (L1210 leukemia; total dose 50 mg/kg) was -0.57 g.

With `CCC1(O)C(=O)OCc2c1cc1n(c2=O)Cc2c-1nc1ccccc1c2CCNC(C)C` (racemic) [Example 30, dl-7-[2-(N-isopropylamino)ethyl]camptothecin] the “IR (%) on tumor size” value (B16 melanoma; 35 mg/kg) was 27%, the “IR (%) on tumor weight” value (B16 melanoma; 35 mg/kg) was 40% and the “Tumor weight day 20” value (B16 melanoma; 35 mg/kg) was 2.34 ± 0.44. For the same molecule, the “Tumor size day 8” value (B16 melanoma; 35 mg/kg) was 86.93 ± 11.34, the “Tumor size day 12” value (B16 melanoma; 35 mg/kg) was 411.88 ± 71.52 and the “Tumor size day 16” value (B16 melanoma; 35 mg/kg) was 1234.65 ± 182.64. The “Tumor size day 20” value (B16 melanoma; 35 mg/kg) was 3061.34 ± 752.34, the “IR (%) on tumor size” value (B16 melanoma; 70 mg/kg) was 54.8% and the “IR (%) on tumor weight” value (B16 melanoma; 70 mg/kg) was 56%. The “Tumor weight day 20” value (B16 melanoma; 70 mg/kg) was 1.71 ± 0.18, the “Tumor size day 8” value (B16 melanoma; 70 mg/kg) was 86.21 and the “Tumor size day 12” value (B16 melanoma; 70 mg/kg) was 320.06. For the same molecule, the “Tumor size day 16” value (B16 melanoma; 70 mg/kg) was 870.46, the “Tumor size day 20” value (B16 melanoma; 70 mg/kg) was 1897.88 and the “IR (%) on tumor size” value (B16 melanoma; 140 mg/kg) was 67.72%. The “IR (%) on tumor weight” value (B16 melanoma; 140 mg/kg) was 71.6%, the “Tumor weight day 20” value (B16 melanoma; 140 mg/kg) was 1.11 ± 0.21 and the “Tumor size day 8” value (B16 melanoma; 140 mg/kg) was 86.94 ± 9.34. For the same molecule, the “Tumor size day 12” value (B16 melanoma; 140 mg/kg) was 328.98 ± 76.57, the “Tumor size day 16” value (B16 melanoma; 140 mg/kg) was 695.75 ± 82.77 and the “Tumor size day 20” value (B16 melanoma; 140 mg/kg) was 1353.91 ± 134.36. The “antitumor activity, comparison in words” value (B16 melanoma; ascites and solid type tumor, compared with camptothecin) was “better antitumor activity on ascites tumor and solid type tumor”, the “toxicity and safety margin, comparison in words” value (B16 melanoma; mouse, in vivo) was “less toxicity and a wide range of safety margin” and the “ILS(%) and dose range, comparison in words” value (L1210 leukemia; compared with other compounds / camptothecin (FIG. 1)) was “better dose dependency and ILS(%) than other compound; also recorded: higher ILS(%) and wider range where the effect was siginificant”. The 30 days survivor (L1210 leukemia; total dose 8.75 mg/kg) was 0/6, the “ILS(%)” value (L1210 leukemia; total dose 8.75 mg/kg) was 58.7% and the “Survival days MST” value (L1210 leukemia; total dose 8.75 mg/kg) was 15.67 days. The “B.W. Change” value (L1210 leukemia; total dose 8.75 mg/kg) was “+0.7 g”, the 30 days survivor (L1210 leukemia; total dose 10 mg/kg) was 0/6 and the “ILS(%)” value (L1210 leukemia; total dose 10 mg/kg) was 42%. For the same molecule, the “Survival days MST” value (L1210 leukemia; total dose 10 mg/kg) was 13.00 days, the “B.W. Change” value (L1210 leukemia; total dose 10 mg/kg) was -0.71 g and the 30 days survivor (L1210 leukemia; total dose 17.5 mg/kg) was 0/6. The “Survival days MST” value (L1210 leukemia; total dose 17.5 mg/kg) was 17.75 days, the “B.W. Change” value (L1210 leukemia; total dose 17.5 mg/kg) was “+0.45 g” and the 30 days survivor (L1210 leukemia; total dose 35 mg/kg) was 0/6. For the same molecule, the “ILS(%)” value (L1210 leukemia; total dose 35 mg/kg) was 92.4%, the “Survival days MST” value (L1210 leukemia; total dose 35 mg/kg) was 19.00 days and the “B.W. Change” value (L1210 leukemia; total dose 35 mg/kg) was -0.12 g. For the same molecule, the 30 days survivor (L1210 leukemia; total dose 50 mg/kg) was 0/6, the “ILS(%)” value (L1210 leukemia; total dose 50 mg/kg) was 119% and the “Survival days MST” value (L1210 leukemia; total dose 50 mg/kg) was 20.00 days. The “B.W. Change” value (L1210 leukemia; total dose 50 mg/kg) was -0.57 g, the 30 days survivor (L1210 leukemia; total dose 70 mg/kg) was 0/6 and the “ILS(%)” value (L1210 leukemia; total dose 70 mg/kg) was 143%. The “Survival days MST” value (L1210 leukemia; total dose 70 mg/kg) was 24.00 days, the “B.W. Change” value (L1210 leukemia; total dose 70 mg/kg) was -0.79 g and the 30 days survivor (L1210 leukemia; total dose 140 mg/kg) was 0/6. For the same molecule, the “ILS(%)” value (L1210 leukemia; total dose 140 mg/kg) was 110%, the “Survival days MST” value (L1210 leukemia; total dose 140 mg/kg) was 20.75 days and the “B.W. Change” value (L1210 leukemia; total dose 140 mg/kg) was -0.93 g.

In the case of `CCc1c2c(nc3ccc(OC(=O)N4CCC(N5CCCCC5)CC4)cc13)-c1cc3c(c(=O)n1C2)COC(=O)[C@]3(O)CC` [CPT-11], the “antineoplastic activity in clinical trial / treatment” value [1] is listed as “excellent antineoplastic activities”.

In the case of `CC[C@@]1(O)C(=O)OCc2c1cc1n(c2=O)Cc2cc3ccccc3nc2-1` [Camptothecin, camptothecin], the “IR (%) on tumor size” value (B16 melanoma; 10 mg/kg) is reported as 57.8%, the “IR (%) on tumor weight” value (B16 melanoma; 10 mg/kg) is reported as 59% and the “Tumor weight day 20” value (B16 melanoma; 10 mg/kg) is reported as 1.61 ± 0.30. For the same molecule, the “Tumor size day 8” value (B16 melanoma; 10 mg/kg) was 85.95 ± 13.15, the “Tumor size day 12” value (B16 melanoma; 10 mg/kg) was 458.56 ± 53.87 and the “Tumor size day 16” value (B16 melanoma; 10 mg/kg) was 1035.98 ± 129.36. For the same molecule, the “Tumor size day 20” value (B16 melanoma; 10 mg/kg) was 1775.50 ± 300.91, the “mode of action on topoisomerase I” value (topoisomerase I) was “specific mode of action to inhibit topoisomerase I; also recorded: binds covalently with topoisomerase I” and the “toxicity in clinical trial” value [1] was “severe toxicity”.
